# Test results as given in patent US20110281807A1, “PLANT DISEASE CONTROL AGENT COMPRISING D-TAGATOSE AS ACTIVE INGREDIENT, AND PLANT DISEASE CONTROL METHOD” (NATIONAL UNIVERSITY CORPORATION KAGAWA UNIVERSITY, priority 2008, published 2011).
# Like-named read-outs stand apart in the source and are kept apart here.
# Legend:
# [1] = system: Pseudoperonospora cubensis; conditions: for Preventive value: 5 ml soil drench, inoculated 5 days after drenching
# Protocol: Test plants (cucumber, variety: Sagami hanpaku) were seeded and grown until the one true leaf stage. D-Tagatose was diluted to 5% and 1% with distilled water and then 5 ml of the dilution was drenched into the soil of the pot. Five days after drenching, a sporangium suspension of Pseudoperonospora cubensis containing 1×10^3/ml were noculated by spraying on the test plants and then put them for 16 hours in an inoculation chamber (20° C. to 23° C.) to promote disease. Seven days after inoculation the disease severity of the test plants was observed and the effectiveness of test sample was judged. Tests were carried out using two plants for each test set and the disease severity of the test plants was judged. The preventive value was calculated from the degree of disease severity as in Example 1.
# Sphaerotheca fuliginea = conditions: Podosphaera fuliginea, in Cucumis sativus, 168 h, read-out: Preventive value
# Protocol: Test plants (cucumber, variety: Sagami hanpaku) were seeded and grown until the one true leaf stage. D-Tagatose and fungicide were diluted to 5000 ppm and the concentrations listed in table 20, respectively, with distilled water and 10 ml of the dilution was sprayed thoroughly on the plants. Three days after spraying, a condia suspension containing of Sphaerotheca fuliginea were inoculated by spraying on test plants.
# Seven days after inoculation the disease severity of the test plants was observed and the effectiveness of test sample was judged.
# Pythium aphanidermatum = experiment: cucumber damping-off, pot test: soil drench of D-tagatose combined with fungicides; conditions: Pythium aphanidermatum, in Cucumis sativus, soil, 336 h, read-out: Preventive value
# Protocol: Five seeds of test plants (cucumber, variety: Sagami hanpaku) were sowed in a pot (5×5 cm), which contains infested soil with Pythium aphanidermatum (mycelium 100 g/1 L soil) and was covered with soil. D-Tagatose was diluted to 5000 ppm and the fungicides were diluted to the concentrations listed in table 18, with distilled water. The pot was drenched with 10 ml of the dilution. After 2 weeks, the disease severity of the test plants was observed and the effectiveness of test sample was judged. Tests were carried out in triplicate using 5 plants for each test set and the preventive value was calculated from the germination rate.
# [2] = system: Pseudoperonospora cubensis; experiment: cucumber downy mildew, pot test: curative effect
# Protocol: Test plants (cucumber, variety: Sagami hanpaku) were seeded and grown until the one true leaf stage. And then a sporangium suspension of Pseudoperonospora cubensis containing 1×10^3/ml were sprayed on the back side of the leaves of test plants for inoculation and then the plants were put for 16 hours in an inoculation chamber (20° C. to 23° C.) to promote disease. For a curative test, the inoculated plants as described above were used.
# D-Tagatose was diluted to 5%, 1% and 0.5% with distilled water and then 10 ml of the dilution was sprayed on the test plant. Seven days after the spraying of D-tagatose the disease severity of the test plants was observed and the effectiveness of test sample was judged. Tests were carried out using two plants for each test set and the disease severity of the test plants was judged. The control value was calculated from the degree of disease severity as in Example 1.
# Puccinia recondita = conditions: Puccinia recondita, in Triticum aestivum, 168 h, read-out: Preventive value
# Protocol: Test plants (variety: Nourin 61 gou) were sowed and grown until two leaves stage.
# D-Tagatose and fungicide were diluted to 10000 ppm and the concentration listed in table 19, respectively, with distilled water, and 10 ml of the dilution was sprayed thoroughly on the plants. Three days after the spraying of the dilution, the plants were inoculated with Puccinia recondita containing 1×10^3/ml and then put for 16 hours in an inoculation chamber (20° C. to 23° C.) to promote disease. Seven days after inoculation the disease severity of the test plants was observed and the effectiveness of test sample was judged.
compound,measurement,setting,value
"O=C(CO)[C@@H](O)[C@@H](O)[C@H](O)CO [D-Tagatose, D-tagatose]",Preventive value,[1]; 10000 ppm,95.0
same,Preventive value,"[1]; 10000 ppm, listed as D-tagatose",95
same,Preventive value,[1]; 50000 ppm,100.0
same,Preventive value,"[1]; 50000 ppm, listed as D-tagatose",100
same,effectiveness in words,[1]; drench treatment,effective enough
same,pest or weed control at 5000 ppm,Sphaerotheca fuliginea,40%
same,pest or weed control at 10000 ppm,Sphaerotheca fuliginea,93%
same,pest or weed control at 5000 ppm,Pythium aphanidermatum,33%
same,pest or weed control at 10000 ppm,Pythium aphanidermatum,83%
same,Preventive value (control value),[2]; 5000 ppm sprayed after inoculation (curative),22.5
same,Preventive value (control value),[2]; 10000 ppm sprayed after inoculation (curative),91.7
same,Preventive value (control value),[2]; 50000 ppm sprayed after inoculation (curative),100.0
same,Preventive value (control value),"[2]; 50000 ppm sprayed after inoculation (curative), listed as D-tagatose",100
same,effectiveness in words,[2]; curative test condition,effective enough
same,pest or weed control at 10000 ppm,Puccinia recondita,17%
same,pest or weed control at 50000 ppm,Puccinia recondita,50%
